Measured values published in publication PMC7935272 (PLoS Pathogens, 2021).
Where “and” joins values, the source holds several entries; their conditions need not be identical. Equal values may be shown once.

Columns and labels:
in vitro = format: cell-based, African green monkey; conditions: African green monkey; Vero-hSLAM, 72 hours
Protocol: (§1) To determine cytotoxic concentrations Vero-hSLAM cells were plated in 96 well plates (1.1 × 10^4 per well) and incubated with three-fold serial dilutions of compound. After incubation of uninfected cells for 72 hours, PrestoBlue substrate (Invitrogen) was added to quantify cell metabolic activity as described. Signal was measured using a BioTek H1 synergy multimode microplate reader. Where applicable, cytotoxic concentrations (CC50) were calculated based on four-parameter variable slope regression modeling.

Vero-hSLAM cells = experiment: in vitro; format: cell-based, African green monkey
Protocol: as §1

[1] = tested on: MeV L-P complexes L H589Y; format: biochemical; conditions: de novo initiation, L H589Y vs WT
[2] = tested on: canine distemper virus (CDV); conditions: oral treatment initiated at first day of viremia; cited from earlier work
MeV L1708 = MeV L1708 (Measles virus, UniProt Q9WMB3); experiment: Biolayer interferometry, MeV L1708 WT; format: binding; conditions: for BLI sensorgram signal: time r4=0 s, r5=0.2 s, r6=0.4 s, r7=0.6 s; for S5 E BLI response versus compound conc. / S5 F BLI response versus compound conc.: L1708 wt; for S5 B BLI sensorgram response / S5 C BLI sensorgram response: MeV L1708 WT; for steady-state BLI sensor response: S7 B
MeV = experiment: Cell-based anti-MeV assays of earlier work

## Cn1nc(C(F)(F)F)cc1C(=O)Nc1ccc(S(=O)(=O)N2CCCC[C@H]2CCN2CCOCC2)cc1 [ERDRP-0519, S(=O)(=O)(N1[C@H](CCN2CCOCC2)CCCC1)c1ccc(NC(=O)c2n(C)nc(C(F)(F)F)c2)cc1]
In vitro
  CC50: > 100000 nM
Vero-hSLAM cells; cpd concentration 0.045725
  Cytotoxicity, normalized metabolic activity (Figure 5B): 92.6189 and 91.5198 and 89.1889
Vero-hSLAM cells; cpd concentration 0.137174
  Cytotoxicity, normalized metabolic activity (Figure 5B): 93.2443 and 94.6845 and 97.0722
Vero-hSLAM cells; cpd concentration 0.411523
  Cytotoxicity, normalized metabolic activity (Figure 5B): 98.6261 and 97.1101 and 101.469
Vero-hSLAM cells; cpd concentration 1.23457
  Cytotoxicity, normalized metabolic activity (Figure 5B): 100.919 and 98.2092 and 94.5139
Vero-hSLAM cells; cpd concentration 3.7037
  Cytotoxicity, normalized metabolic activity (Figure 5B): 98.683 and 65.7665 and 99.5736
Vero-hSLAM cells; cpd concentration 11.1111
  Cytotoxicity, normalized metabolic activity (Figure 5B): 96.5984 and 96.9017 and 98.6451
Vero-hSLAM cells; cpd concentration 33.3333
  Cytotoxicity, normalized metabolic activity (Figure 5B): 105.751 and 104.652 and 106.244
Vero-hSLAM cells; cpd concentration 100
  Cytotoxicity, normalized metabolic activity (Figure 5B): 82.5753 and 96.0868 and 96.0678
[1]
  increase in IC50 value: 24 fold
[2]
  survival: all treated animals survived
MeV L1708; 0.027 µM, 0 s after start
  BLI sensorgram signal: 0.003933
MeV L1708; 0.027 µM, 0.2 s after start
  BLI sensorgram signal: 0.003451
MeV L1708; 0.027 µM, 0.4 s after start
  BLI sensorgram signal: 0.003441
MeV L1708; 0.027 µM, 0.6 s after start
  BLI sensorgram signal: 0.002991
MeV L1708; 0.08 µM, 0 s after start
  BLI sensorgram signal: 0.004633
MeV L1708; 0.08 µM, 0.2 s after start
  BLI sensorgram signal: 0.004988
MeV L1708; 0.08 µM, 0.4 s after start
  BLI sensorgram signal: 0.005321
MeV L1708; 0.08 µM, 0.6 s after start
  BLI sensorgram signal: 0.005054
MeV L1708; 0.74 µM, 0 s after start
  BLI sensorgram signal: 0.0125
MeV L1708; 0.74 µM, 0.2 s after start
  BLI sensorgram signal: 0.01183
MeV L1708; 0.74 µM, 0.4 s after start
  BLI sensorgram signal: 0.01188
MeV L1708; 0.74 µM, 0.6 s after start
  BLI sensorgram signal: 0.0114
MeV L1708; 2.22 µM, 0 s after start
  BLI sensorgram signal: 0.01275
MeV L1708; 2.22 µM, 0.2 s after start
  BLI sensorgram signal: 0.01261
MeV L1708; 2.22 µM, 0.4 s after start
  BLI sensorgram signal: 0.01211
MeV L1708; 2.22 µM, 0.6 s after start
  BLI sensorgram signal: 0.01142
MeV L1708; 6.67 µM, 0 s after start
  BLI sensorgram signal: 0.009323
MeV L1708; 6.67 µM, 0.2 s after start
  BLI sensorgram signal: 0.01006
MeV L1708; 6.67 µM, 0.4 s after start
  BLI sensorgram signal: 0.01027
MeV L1708; 6.67 µM, 0.6 s after start
  BLI sensorgram signal: 0.01076
MeV L1708; compound conc. 0.1 uM
  S5 E BLI response versus compound conc.: 0.01921
  S5 F BLI response versus compound conc.: 0.02408
MeV L1708; compound conc. 0.25 uM
  S5 E BLI response versus compound conc.: 0.02429
  S5 F BLI response versus compound conc.: 0.0326
MeV L1708; compound conc. 1 uM
  S5 E BLI response versus compound conc.: 0.03022
  S5 F BLI response versus compound conc.: 0.03823
MeV L1708; compound conc. 5 uM
  S5 E BLI response versus compound conc.: 0.0316
  S5 F BLI response versus compound conc.: 0.04742
MeV L1708; 100 nM, time 0 s
  S5 B BLI sensorgram response: -0.001906
  S5 C BLI sensorgram response: 0.005581
MeV L1708; 100 nM, time 0.2 s
  S5 B BLI sensorgram response: -0.001896
  S5 C BLI sensorgram response: 0.006504
MeV L1708; 100 nM, time 0.4 s
  S5 B BLI sensorgram response: -0.001894
  S5 C BLI sensorgram response: 0.007379
MeV L1708; 100 nM, time 0.6 s
  S5 B BLI sensorgram response: -0.001966
  S5 C BLI sensorgram response: 0.008161
MeV L1708; 250 nM, time 0 s
  S5 B BLI sensorgram response: -0.005003
  S5 C BLI sensorgram response: -0.0006808
MeV L1708; 250 nM, time 0.2 s
  S5 B BLI sensorgram response: -0.005217
  S5 C BLI sensorgram response: -0.0001528
MeV L1708; 250 nM, time 0.4 s
  S5 B BLI sensorgram response: -0.005452
  S5 C BLI sensorgram response: 0.0001322
MeV L1708; 250 nM, time 0.6 s
  S5 B BLI sensorgram response: -0.004917
  S5 C BLI sensorgram response: 0.0008364
MeV L1708; 1 µM, time 0 s
  S5 B BLI sensorgram response: -0.01251
  S5 C BLI sensorgram response: -0.001989
MeV L1708; 1 µM, time 0.2 s
  S5 B BLI sensorgram response: -0.01197
  S5 C BLI sensorgram response: -0.00137
MeV L1708; 1 µM, time 0.4 s
  S5 B BLI sensorgram response: -0.01055
  S5 C BLI sensorgram response: -0.0005476
MeV L1708; 1 µM, time 0.6 s
  S5 B BLI sensorgram response: -0.009819
MeV L1708; 5 µM, time 0 s
  S5 B BLI sensorgram response: -0.006751
MeV L1708; 5 µM, time 0.2 s
  S5 B BLI sensorgram response: -0.006914
  S5 C BLI sensorgram response: 0.003468
MeV L1708; 5 µM, time 0.4 s
  S5 B BLI sensorgram response: -0.007277
  S5 C BLI sensorgram response: 0.003613
MeV L1708; 5 µM, time 0.6 s
  S5 B BLI sensorgram response: -0.007135
  S5 C BLI sensorgram response: 0.003495
MeV L1708; 10 µM, time 0 s
  S5 B BLI sensorgram response: -0.00589
  S5 C BLI sensorgram response: -0.0007761
MeV L1708; 10 µM, time 0.2 s
  S5 B BLI sensorgram response: -0.006049
  S5 C BLI sensorgram response: -0.00071
MeV L1708; 10 µM, time 0.4 s
  S5 B BLI sensorgram response: -0.006539
  S5 C BLI sensorgram response: -0.000595
MeV L1708; 10 µM, time 0.6 s
  S5 B BLI sensorgram response: -0.006943
  S5 C BLI sensorgram response: -0.0003228
MeV L1708; 50 µM, time 0 s
  S5 B BLI sensorgram response: -0.01268
  S5 C BLI sensorgram response: 0.001755
MeV L1708; 50 µM, time 0.2 s
  S5 B BLI sensorgram response: -0.01168
  S5 C BLI sensorgram response: 0.001652
MeV L1708; 50 µM, time 0.4 s
  S5 B BLI sensorgram response: -0.01101
  S5 C BLI sensorgram response: 0.001542
MeV L1708; 50 µM, time 0.6 s
  S5 B BLI sensorgram response: -0.01006
  S5 C BLI sensorgram response: 0.001922
MeV L1708; 0.003 uM
  steady-state BLI sensor response: 0.007597
MeV L1708; 0.027 uM
  steady-state BLI sensor response: 0.01138
MeV L1708; 0.08 uM
  steady-state BLI sensor response: 0.01081
MeV L1708; 0.74 uM
  steady-state BLI sensor response: 0.01443
MeV L1708; 2.22 uM
  steady-state BLI sensor response: 0.01474
MeV L1708; 6.67 uM
  steady-state BLI sensor response: 0.01921
MeV; Figure 7A source data
  IC50: 60 nM
MeV; −log10(EC50) of literature EC50
  IC50: 60.1 nM
